From patent US9863938B2, “Synthetic antibodies” (ARIZONA BOARD OF REGENTS, A BODY CORPORATE OF THE STATE OF …, priority 2006, dated 2018)
Like-named read-outs stand apart in the source and are kept apart here. Blank lines part the entries; values can stand above or below the substance they belong to. Bridge positions count the residues as written; N and C are the ends. Ends that are not written are not given here. I, II: the chains in the order shown.

How the values were obtained:
[1] = system: 8,000 human proteins (GST fusion); assay: Invitrogen Protoarray Human Protein Microarray (8,000 features), fluorescence intensity of bound ligand; format: binding
Procedure: Two biotinylated anti-TRF synbodies (SYN23-26 and SYN 21-22) were applied to a protein microarray having 8,000 features (Invitrogen Protoarray Human Protein Microarray v. 4.0 for immune response biomarker profiling), each feature comprising a distinct human protein (GST fusion) adsorbed to a nitrocellulose coated slide. Application of the synbodies to the microarray was performed in accordance with manufacturer instructions: (see ProtoArray Human Protein Microarray, Invitrogen, Catalog no. PAH052401, Version B, 15 Dec. 2006, 25-0970, Users Manual.) After blocking the array with 1% BSA/PBS/0.1% Tween for 1 hour at 4 C with gentle shaking, 120 μl of probing buffer (1×PBS, 5 mM mgCl2, 0.5 mM DTT, 0.05% Triton X-100, 5% glycerol, 1% BSA) with synbody was applied to the array. The prescribed cover slip was placed over the array and adjusted to remove air bubbles. The array was incubated in a 50 ml conical tube, printed side up, for 1.5 hours at 4 C without shaking The array was then removed from the conical tube inserted diagonally into the array chamber, kept on ice. 8 ml probing buffer was added to the chamber wall. The cover slip was removed and the array was incubated in probing buffer for 1 minute on ice. […] The array was dried in the dark for 60 minutes at room temperature, after which it was scanned using a fluorescent microarray scanner and data was taken and analyzed.

[2] = target: T1, transferrin (Homo sapiens, UniProt P02787); assay: SPR analysis of 1:1 polypeptide pairs for binding to distinct sites on immobilized target; conditions: SPR response of pair mixture versus single polypeptides
T1 sequence (P02787 20-698, species assumed): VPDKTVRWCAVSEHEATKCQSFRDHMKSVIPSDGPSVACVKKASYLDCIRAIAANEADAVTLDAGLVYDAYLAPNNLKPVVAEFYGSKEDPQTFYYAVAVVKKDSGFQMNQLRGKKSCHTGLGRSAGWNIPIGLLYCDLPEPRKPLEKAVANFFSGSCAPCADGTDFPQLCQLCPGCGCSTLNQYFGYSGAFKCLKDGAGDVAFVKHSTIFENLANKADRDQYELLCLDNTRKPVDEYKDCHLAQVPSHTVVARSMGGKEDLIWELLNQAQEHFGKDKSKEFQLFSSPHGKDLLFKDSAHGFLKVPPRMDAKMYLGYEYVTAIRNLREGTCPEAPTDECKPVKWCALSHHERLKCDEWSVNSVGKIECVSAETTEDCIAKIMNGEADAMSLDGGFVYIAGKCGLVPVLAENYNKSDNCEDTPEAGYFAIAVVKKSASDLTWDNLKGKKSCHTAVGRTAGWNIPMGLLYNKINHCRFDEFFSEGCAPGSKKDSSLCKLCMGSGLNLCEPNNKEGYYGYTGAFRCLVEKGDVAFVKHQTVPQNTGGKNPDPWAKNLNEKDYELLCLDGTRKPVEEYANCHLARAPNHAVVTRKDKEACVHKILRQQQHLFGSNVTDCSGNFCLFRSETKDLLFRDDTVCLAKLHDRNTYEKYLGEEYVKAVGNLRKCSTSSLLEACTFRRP
Text: The transferrin target was immobilized on a Biacore T100 SPR chip, and candidate polypeptides were applied in 1:1 mixtures in pairs and response data obtained, in accordance with the methods described in Example 4 above.

[3] = target: T1, transferrin; assay: SPR steady-state solution phase KD of candidate affinity elements, transferrin immobilized on Biacore T100 chip; format: binding
Procedure: Transferrin was immobilized by amine-coupling to the carboxyl-functionalized surface of a Biacore T100 CMS Dextran SPR chip as illustrated in FIG. 11. A 1:1 mixture of EDC (0.4M 1-ethyl-3-(3-dimethylaminopropyl)-carbodiimide in water) and NHS (0.1M N-hydroxysuccinimide in water) was applied 300 at a flow rate of 5 to 10 μl/min for a contact time of about 6 to 10 minutes to activate the surface by conjugating […] 306 to the surface-exposed carboxyl groups. Transferrin 25 μg/ml in immobilization buffer selected for correct pH was then applied 302 at a flow rate of 5 to 10 μl/min for a contact time of about 5 to 10 minutes, allowing the amine functionality on the transferrin 308 to displace the activated NHS ester and bond to the surface via an amide bond. Finally, ethylene diamine (1 M ethylene diamine-HCl at pH 8.5) was applied at a flow rate of 5 to 10 μl/min for a contact time of about 6 to 7 minutes to deactivate any remaining reactive groups on the dextran chip surface. Flow rates and contact times are adjusted as necessary to provide the surface concentration of target desired for the intended application, and may vary by target. In general, for evaluating whether binding occurs, it is preferable to immobilize a relatively large quantity of target, and higher flow rates and/or longer contact times may be used. For determining kinetics, it is preferable to limit the amount of target immobilized so as to minimize rebinding and avidity effects, and lower flow rates and/or contact times may be used.
Candidate affinity elements for the transferrin synbody TRF 19 (SEQ ID NO: 1), TRF21 (SEQ ID NO: 3), TRF23 (SEQ ID NO: 5), TRF24 (SEQ ID NO: 6), TRF25 (SEQ ID NO: 7), and TRF26 (SEQ ID NO: 8) were individually evaluated for solution phase KD with respect to transferrin by SPR analysis. Because the off rates for these polypeptides were very high, KD values were estimated by measuring steady-state response for at least five concentrations in a two-fold dilution series, each concentration tested in duplicate. For each experiment, response data were processed using a reference surface to correct for bulk refractive index changes and any nonspecific binding. Data were also double referenced using responses from blank running buffer injections. Each experiment was conducted at 25° C. using PBST (0.01M Phosphate Buffered Saline, 0.138M NaCl, 0.0027M KCl, 0.05% surfactant Tween20, pH 7.4) as the running buffer on a Biacore T100 instrument. Analytes were injected for 60 s at a flow rate of 30 μl/min. The antigen surfaces were regenerated with 30 s consecutive pulses of NaOH/NaCl (50 mM NaOH in IM NaCl) and Glycine (10 mM glycine —HCl, pH 2.5).

[4] = target: T2, human α-thrombin (Homo sapiens, UniProt P00734); assay: ELISA-type assay on wells coated with thrombin; format: binding; conditions: read-out: Dissociation constant estimated
T2 construct: concentrations of human α-thrombin ranging from 0 to 100 nM
Procedure: Binding to thrombin was evaluated in an ELISA-type assay. Wells of a 96 well plate were coated with 100 μL of 30 μg/mL human α-thrombin and incubated at 4 C overnight. The plate was washed twice with DDI H2O and passivated with 3% BSA in IX PBS buffer for 1 hour. The plate was shaken out and 50 μL of varying concentrations of analyte (DNA tile synbody, DNA tile with each aptamer with the other not present, and each aptamer alone, respectively) were incubated at RT for 1 hour. DNA tiles were biotin-modified at the 5′ end of one of the distal DNA strands 346 (see FIG. 26(a)). The plate was rinsed 10 times in IXPBS and 50 μL of 1:1000 dilution of streptavidin-HRP in 0.1% BSA in IX PBS was pipetted and incubated for 1 hour at RT. The plate was again rinsed and 50 μL of TMB was added and incubated at RT for 15 minutes. 50 μL of 0.5M HCl was added and the plate was read immediately. Results are shown in FIG. 27 for the DNA tile synbody 350; the DNA tile with Apt1 (SEQ ID NO: 20) but not Apt2 (SEQ ID NO: 21) present 352; the DNA tile with Apt2 but not Apt1 (SEQ ID NO: 20) present 356; Apt1 (SEQ ID NO: 20) alone 354; and Apt2 (SEQ ID NO: 21) alone 358. Dissociation constant values estimated from this assay were about 1 nM for the DNA tile synbody, about 10 nM for Apt1 (SEQ ID NO: 20) alone, and more than 1 μM for Apt2 (SEQ ID NO: 21) alone.

[5] = estimated from steady-state SPR response, 25° C., PBST pH 7.4, read-out: Solution Phase KD
[6] = restates Table 3, read-out: solution phase affinities for transferrin, range of KD

- binding to distinct sites on target [2]: bind distinct sites on transferrin
- Kd [3, 5]: ~50 µM
- Kd [3, 6]: 50 to 100 µM
Substance: FRGWAHIFFGPHVIYRGGSC [TRF23]

- Kd [3, 5]: ~60 µM
Substance: QYHHFMNLKRQGRAQAYGSC [TRF21]

- binding to distinct sites on target [2]: bind distinct sites on transferrin
- Kd [3, 6]: 50 to 100 µM
Substance: AHKVVPQRQIRHAYNRYGSC [TRF26]

- Kd [3, 5]: ~60 µM
Substance: APYAPQQIHYWSTLGFKGSC [TRF25]

Further lines, the substance ahead of its results:

Substance: I: H-FRGWAHIFFGPHVIYRGGSGKC / II: H-AHKVVPQRQIRHAYNRYGSG (amide I:21-II:C) [SYN23-26]
- highest affinity target from library of 8,000 [1]: PCCA
- targets bound with intensities higher than that of 1C10 for TRF [1]: seven targets

Substance: 5′-AGTCCGTGGTAGGGCAGGTTGGGGTGACT-3′ [Apt1]
- Kd [4]: ~0.01 µM

Substance: 5′-GGTTGGTGTGGTTGG-3′ [Apt2]
- Kd [4]: > 1 µM
